Earlier results, collected in patent US20030170327A1, “Vitamin and zinc monomethionine compositions” (priority 2002, published 2003).

Settings: versus other forms of zinc found in nutritional supplements

CSCC[C@H](N)C(=O)O.[Zn] [zinc monomethionine]
absorption in comparison to other forms of zinc: better absorbed | retention in comparison to other forms of zinc: retained longer
